± gives the standard deviation of the averaged measurements.
Compound: CCC1=C[C@@H]2CN(C1)Cc1c([nH]c3ccccc13)[C@@](C(=O)OC)(c1cc3c(cc1OC)N(C)[C@H]1[C@@](O)(C(=O)OC)[C@H](OC(C)=O)[C@]4(CC)C=CCN5CC[C@]31[C@@H]54)C2 [VINORELBINE]
Assay: surviving fraction relative to DMSO-only wells; higher = less growth inhibition
Conditions: 5 nM; exposure time: 5 days
Outline: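 Viability was determined by CellTiter-Glo luminescence, expressed as surviving fraction normalised to the median of DMSO-only wells. The cells were log-phase tumour cell lines seeded at 250–500 per well in 384-well plates and, after 24 hours, exposed continuously for five days to inhibitors at 0.5, 1, 5, 10, 50, 100, 500 and 1000 nM. Three screens per line were run, keeping only lines with replicate Pearson r >0.7 and median Z' >0.3.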

Test System	surviving fraction
22RV1 PROSTATE	0.916 ± 0.13
93VU HEADNECK	1.04 ± 0.034
143B BONE	1.016 ± 0.0071
A549 LUNG	0.979 ± 0.053
ASKA SYNOVIAL	0.43 ± 0.029
BT20 BREAST	0.973 ± 0.076
BT549 BREAST	0.934 ± 0.12
CADOES1 SOFT TISSUE	0.928 ± 0.12
CAL51 BREAST	0.736 ± 0.035
CAL120 BREAST	0.782 ± 0.015
CASKI CERVIX	0.702 ± 0.014
CHLA90 AUTONOMIC GANGLIA	0.951 ± 0.058
CME SYNOVIAL	1.21 ± 0.11
COLO320DM LARGE INTESTINE	1.06 ± 0.12
DU4475 BREAST	1.01 ± 0.14
H23 LUNG	1.04 ± 0.039

Test System	surviving fraction
HCC38 BREAST	1.24 ± 0.14
HCC70 BREAST	0.937 ± 0.042
HCC78 LUNG	0.877 ± 0.25
HCC202 BREAST	0.946 ± 0.088
HCC1806 BREAST	1.01 ± 0.077
HCC1954 BREAST	0.576 ± 0.01
HCT15 LARGE INTESTINE	1.04 ± 0.085
HELA CERVIX	1.04 ± 0.015
HMLE3 BREAST	1.07 ± 0.044
HMT3552 BREAST	0.59
HOS BONE	1.05 ± 0.034
HOSMNG BONE	0.963 ± 0.11
HS57T BREAST	0.682 ± 0.0066
HS578T BREAST	0.423 ± 0.021
HSSYII SYNOVIAL	0.308 ± 0.033
HT1080 SOFT TISSUE	0.903 ± 0.018

Same assay, conditions: 10 nM; exposure time: 5 days

Test System	surviving fraction
22RV1 PROSTATE	0.655 ± 0.12
93VU HEADNECK	1.05 ± 0.075
143B BONE	0.864 ± 0.024
A549 LUNG	0.968 ± 0.045
ASKA SYNOVIAL	0.306 ± 0.015
BT20 BREAST	0.709 ± 0.18
BT549 BREAST	0.618 ± 0.099
CADOES1 SOFT TISSUE	0.84 ± 0.073
CAL51 BREAST	0.452 ± 0.011
CAL120 BREAST	0.623 ± 0.026
CASKI CERVIX	0.188 ± 0.027
CHLA90 AUTONOMIC GANGLIA	0.768 ± 0.011
CME SYNOVIAL	1.08 ± 0.12
COLO320DM LARGE INTESTINE	1.12 ± 0.088
DU4475 BREAST	0.906 ± 0.095
H23 LUNG	0.84 ± 0.014

Test System	surviving fraction
HCC38 BREAST	1.06 ± 0.12
HCC70 BREAST	0.752 ± 0.029
HCC78 LUNG	0.575 ± 0.15
HCC202 BREAST	0.603 ± 0.14
HCC1806 BREAST	0.173 ± 0.14
HCC1954 BREAST	0.311 ± 0.011
HCT15 LARGE INTESTINE	0.957 ± 0.058
HELA CERVIX	0.778 ± 0.043
HMLE3 BREAST	0.987 ± 0.013
HMT3552 BREAST	0.209
HOS BONE	0.967 ± 0.031
HOSMNG BONE	0.955 ± 0.15
HS57T BREAST	0.118 ± 0.011
HS578T BREAST	0.276 ± 0.027
HSSYII SYNOVIAL	0.0998 ± 0.006
HT1080 SOFT TISSUE	0.503 ± 0.01
